The text below walks through data of patent US7217722B2 (Kirin Beer Kabushiki Kaisha, priority 2000, dated 2007).

Counter-ions that a name gives are not always drawn.

Broadly, the IC50 is the concentration at which inhibition is half-maximal.

Test [1] deals with Human-derived histiocyte lymphoma (U937/CCR2). In words: Leukocyte migration inhibitory activity (MCP-1 induced migration, CHEMOTAXICELL). It is filed as cell-based. To be noted: U937/CCR2, MCP-1, 1 hr; for inhibition at 0.3 µM: test compound 0.3 μM. On the procedure: Human-derived histiocyte lymphoma (U937/CCR2), in which mouse-derived CCR2 had been highly expressed, was suspended in a 0.1% BSA-containing RPMI 1640 medium, to which a test compound had been added (5×10^6/ml), and the suspension was incubated for 20 min. A chemical solution (500 μl) (0.1% BSA-containing RPMI 1640 medium DMSO 1%), to which an MCP-1 ligand (1 μM) and the test compound had been added, was added to a 24-well plate. CHEMOTAXICELL was put thereon, and 200 μl of the cell suspension was added to the top layer, followed by migration under 5% carbon dioxide at 37° C. for one hr. The number of cells, which had migrated to the lower chamber, was counted with a particle count analyzer (CDA-500, SYSMEX CORPORATION), and the percentage migration inhibition was calculated by the following equation; Migration inhibition (%)={1−(number of migrated cells in the presence of test compound/number of migrated cells in the absence of test compound)}×100

Test [2] concerns the target Rho kinase (fused protein of bovine Rho kinase catalyst region and glutathione S-transferase) (Bos taurus, UniProt Q28021). The test is described as follows: Rho kinase inhibitory activity (phosphorylation of S6 231–239 substrate, γ32P-ATP). It is filed as biochemical. The following applies: concentration inhibiting substrate phosphorylation by 50%. The procedure:
This permits the substrate to be labeled with the radioisotope.
Thereafter, the substrate was adsorbed to a filter paper. ATP was washed away with a phosphoric acid solution, and the amount of the phosphorylated substrate was then measured with a liquid scintillation counter.

The mark [3] stands for this setting: Homo sapiens, U-937, 1 h, test compound 3 μM, read-out: Migration inhibition (%) ± SEM.
[4] abbreviates: Homo sapiens, U-937, 1 h, test compound 1 μM, read-out: Migration inhibition (%) ± SEM.
Where [5] appears, read: Homo sapiens, U-937, 1 h, read-out: Migration inhibition (%) ± SEM.
The mark [6] stands for this setting: Homo sapiens, U-937, 1 h, test compound 30 μM, read-out: Migration inhibition (%) ± SEM.

Rho kinase (fused protein of bovine Rho kinase catalyst region and glutathione S-transferase), sequence (Q28021 92-354 limits assumed): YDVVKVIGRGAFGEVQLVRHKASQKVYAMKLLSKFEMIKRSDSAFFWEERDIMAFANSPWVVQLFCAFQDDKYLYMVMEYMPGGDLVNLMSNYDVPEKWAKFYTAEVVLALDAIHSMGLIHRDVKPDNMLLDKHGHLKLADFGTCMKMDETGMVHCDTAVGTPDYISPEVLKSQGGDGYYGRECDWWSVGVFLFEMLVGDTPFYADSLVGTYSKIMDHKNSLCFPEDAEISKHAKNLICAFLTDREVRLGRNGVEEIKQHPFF

On to `c1ccc(CCN[C@H]2CC[C@@H](Nc3ccc4[nH]ncc4c3)CC2)cc1` [259 (syn), N1-(1H-5-Indazolyl)-N4-phenylethyl-1,4-cyclohexanediamine], for which the inhibition at 3 µM in test [1] (setting [3]) came out at 85.3 ± 8.5%. Take `CCCN[C@H]1CC[C@H](Nc2cccc3cnccc23)CC1` [260 (anti)]: in test [1] (setting [4]), the inhibition at 1 µM was 77.4 ± 14.4%. Take `c1cc(NC2CCC(NC3CC3)CC2)c2ccncc2c1` (stereo not drawn) [262 (anti), N1-Cyclopropyl-N4-(5-isoquinolyl)-1,4-cyclohexanediamine]: the inhibition at 0.3 µM in test [1] (setting [5]) amounted to 24.4 ± 8.1%. Further, in test [1] (setting [4]), the inhibition at 1 µM was determined as 82.5 ± 6.69%. With `c1cc(NC2CCC(NC3CC3)CC2)c2ccncc2c1` (stereo not drawn) [262 (syn), N1-Cyclopropyl-N4-(5-isoquinolyl)-1,4-cyclohexanediamine], the “Migration inhibition (%) ± SEM” value in test [1] (test compound 1 μM, 1 µM) is on record as 69.9 ± 15.1%. The molecule `CC(NC(=O)Nc1ccc2c(c1)C(=O)NC2=O)c1ccc(Br)cc1` (stereo not drawn) [Example 20, N-[1-(4-bromophenyl)ethyl]-N′-(1,3-dioxo-2,3-dihydro-1H-5-isoindolyl)urea] came in with an IC50 in test [2] of 110 nM. For the same molecule, the inhibition at 3 µM in test [1] (setting [3]) came to 46.7 ± 19.4%. For the same molecule, the inhibition at 30 µM in test [1] (setting [6]) turned out to be 95.4 ± 3.4%. As for `Cl.c1ccc(CN2CCCC(Nc3ccc4[nH]ncc4c3)C2)cc1` (stereo not drawn) [Example 21.HCl, N-(1-Benzyl-3-piperidyl)-N(1H-5-indazolyl)amine], the “Migration inhibition (%) ± SEM” value stood at 83.5 ± 3.3% in test [1] (test compound 3 μM) and 99.1 ± 0.4% in test [1] (test compound 30 μM).

For `Brc1ccc(CN2CCC(Nc3ccc4[nH]ncc4c3)CC2)cc1` [Example 22], the inhibition at 3 µM in test [1] (setting [3]) amounted to 34.8 ± 12.4%. Also, in test [1] (setting [6]), the inhibition at 30 µM was found to be 92.9 ± 1.3%. Regarding `O=C(NCc1c(Cl)cccc1Cl)Nc1ccncc1` [Example 80, N-(2,6-dichlorobenzyl)-N′-(4-pyridyl)urea], it took 770 nM to reach half-maximal inhibition in test [2] (IC50). Moreover, in test [1] (setting [3]), the inhibition at 3 µM is 26 ± 4.7%. The inhibition at 30 µM in test [1] (setting [6]) is 65.1 ± 17.3%. `O=C(NCc1c(F)cccc1Cl)Nc1ccc2c(c1)C(=O)NC2=O` [Example 83, N-(2-chloro-6-fluorobenzyl)-N′-(1,3-dioxo-2,3-dihydro-1H-6-isoindolyl)urea] showed an IC50 in test [2] of 60 nM. The inhibition at 3 µM in test [1] (setting [3]) came out at 16.1 ± 9.6%. Besides, the inhibition at 30 µM in test [1] (setting [6]) stood at 92.5 ± 3.3%. In the case of `O=C(NCc1c(F)cccc1F)Nc1ccc2c(c1)C(=O)NC2=O` [Example 90, N-(2,6-difluorobenzyl)-N′-(1,3-dioxo-2,3-dihydro-1H-5-isoindolyl)urea], the IC50 in test [2] came out at 69 nM. In addition, the inhibition at 30 µM in test [1] (setting [6]) was determined as 78.3 ± 3.2%. In test [2], `O=C(NCc1c(F)cccc1F)Nc1ccc2[nH]ncc2c1` [Example 95, N-(2,6-difluorobenzyl)-N′-(1H-5-indazolyl)urea] had an IC50 of 85 nM. In addition, in test [1] (setting [3]), the inhibition at 3 µM was determined as 17.1 ± 11.7%. Besides, the inhibition at 30 µM in test [1] (setting [6]) amounted to 77.6 ± 6.4%. The molecule `O=C(NCc1c(F)cccc1Cl)Nc1ccc2[nH]ncc2c1` [Example 102, N-(2-chloro-6-fluorobenzyl)-N′-(1H-5-indazolyl)urea] showed an IC50 in test [2] of 79 nM. Further, in test [1] (setting [3]), the inhibition at 3 µM was 6.8 ± 17%. The inhibition at 30 µM in test [1] (setting [6]) is 96.7 ± 1%. For the molecule `c1ccc(CN2CCC(Nc3ccc4[nH]ncc4c3)C2)cc1` (stereo not drawn) [Example 146.HCl, N-(1-Benzyltetrahydro-1H-pyrrolyl)-N-(1H-5-indazolyl)amine], the “Migration inhibition (%) ± SEM” value in test [1] (test compound 3 μM, 3 µM) is recorded as 74.5 ± 1.7%; in test [1] (test compound 30 μM, 30 µM) it was 97.9 ± 1.0%.

Turning to `COc1ccc(CN2CCC(Nc3ccc4[nH]ncc4c3)C2)cc1` (stereo not drawn) [Example 156, N-(1H-5-Indazolyl)-N-[1-(4-methoxybenzyl)tetrahydro-1H-3-pyrrolyl]amine], inhibition in test [2] was half-maximal at 2 nM (IC50). Still for that read-out and setting: the figure for `Cc1ccc(CN2CCC(Nc3ccc4[nH]ncc4c3)C2)cc1` (stereo not drawn) [Example 157, N-(1H-5-Indazolyl)-N-[1-(4-methylbenzyl)tetrahydro-1H-3-pyrrolyl]amine] is 22 nM. On the same count and under the same terms, then `O=[N+]([O-])c1cccc(CN2CCC(Nc3ccc4[nH]ncc4c3)C2)c1` (stereo not drawn) [Example 158, N-(1H-5-Indazolyl)-N-[1-(3-nitrobenzyl)tetrahydro-1H-3-pyrrolyl]amine], with 5 nM; and `O=[N+]([O-])c1ccc(CN2CCC(Nc3ccc4[nH]ncc4c3)C2)cc1` (stereo not drawn) [Example 159, N-(1H-5-Indazolyl)-N-[1-(4-nitrobenzyl)tetrahydro-1H-3-pyrrolyl]amine], with 12 nM. With `COc1cc(CN2CCC(Nc3ccc4[nH]ncc4c3)C2)cc(OC)c1` (stereo not drawn) [Example 160, N-[1-(3,5-Dimethoxybenzyl)tetrahydro-1H-3-pyrrolyl]-N-(1H-5-indazolyl)amine], in test [2], the IC50 worked out at 1 nM. `Clc1ccccc1CN1CCCC(Nc2ccc3[nH]ncc3c2)C1` (stereo not drawn) [Example 161, N-[1-(2-Chlorobenzyl)-3-piperidyl]-N-(1H-5-indazolyl)amine]: the half-inhibitory concentration (IC50) in test [2] was determined as 13 nM.

`Clc1cccc(CN2CCCC(Nc3ccc4[nH]ncc4c3)C2)c1` (stereo not drawn) [Example 162, N-[1-(3-Chlorobenzyl)-3-piperidyl]-N-(1H-5-indazolyl)amine] had an IC50 in test [2] of 19 nM. Same read-out and setting: then `Clc1ccc(CN2CCCC(Nc3ccc4[nH]ncc4c3)C2)cc1` (stereo not drawn) [Example 163, N-[1-(4-Chlorobenzyl)-3-piperidyl]-N-(1H-5-indazolyl)amine], with 11 nM; and `Brc1ccc(CN2CCCC(Nc3ccc4[nH]ncc4c3)C2)cc1` (stereo not drawn) [Example 165, N-[1-(4-Bromobenzyl)-3-piperidyl]-N-(1H-5-indazolyl)amine], with 11 nM. Take `COc1ccc(CN2CCCC(Nc3ccc4[nH]ncc4c3)C2)cc1` (stereo not drawn) [Example 166, N-(1H-5-Indazolyl)-N-[1-(4-methoxybenzyl)-3-piperidyl]amine]: the IC50 in test [2] was found to be 16 nM. Still for that read-out and setting: then `Cc1ccc(CN2CCCC(Nc3ccc4[nH]ncc4c3)C2)cc1` (stereo not drawn) [Example 167, N-(1H-5-Indazolyl)-N-[1-(4-methylbenzyl)-3-piperidyl]amine], with 9 nM; and `O=[N+]([O-])c1ccc(CN2CCCC(Nc3ccc4[nH]ncc4c3)C2)cc1` (stereo not drawn) [Example 169, N-(1H-5-Indazolyl)-N-[1-(4-nitrobenzyl)-3-piperidyl]amine], with 87 nM. Molecule `COc1cc(CN2CCCC(Nc3ccc4[nH]ncc4c3)C2)cc(OC)c1` (stereo not drawn) [Example 170, N-[1-(3,5-Dimethoxybenzyl)-3-piperidyl]-N-(1H-5-indazolyl)amine] gave an IC50 in test [2] of 80 nM.

Molecule `c1ccc(NC2CCC(Nc3ccc4[nH]ncc4c3)CC2)cc1` (stereo not drawn) [Example 172, N1-(1H-5-Indazolyl)-N4-phenyl-1,4-cyclohexanediamine] had a half-inhibitory concentration (IC50) in test [2] of 265 nM. The same measure, in the same setting: then `O=C(CNCc1ccccc1)Nc1ccc2[nH]ncc2c1` [Example 173, N1-(1H-5-Indazolyl)-2-(benzylamino)acetamide], with 446 nM; and `c1ccc(CNCCNc2ccc3[nH]ncc3c2)cc1` [Example 174, N1-Benzyl-N2-(1H-5-indazolyl)-1,2-ethanediamine], with 163 nM. Same read-out and setting: the figure for `CC(=O)n1ncc2cc(NC3CCN(Cc4ccccc4)CC3)ccc21` [Example 176, 1-{5-[(1-Benzyl-4-piperidyl)amino]-1H-5-indazolyl}-1-ethanone] is 4 nM. With `COC(=O)C(c1ccccc1)N1CCCC(Nc2ccc3[nH]ncc3c2)C1` (stereo not drawn) [Example 221, methyl 2-[3-(1H-5-indazolylamino)piperidino]-2-phenylacetate], the inhibition at 0.03 µM in test [1] (Homo sapiens, U-937, 1 h, test compound 0.03 μM, read-out: Migration inhibition (%) ± SEM) worked out at 27.5 ± 33.6%. In test [1] (setting [5]), the inhibition at 0.3 µM is 90.8 ± 11%. In the case of `CCCNC1CCC(Nc2ccc3[nH]ncc3c2)CC1` (stereo not drawn) [Example 243, N1-(1H-5-indazolyl)-N4-propyl-1,4-cyclohexanediamine], the inhibition at 3 µM in test [1] (setting [3]) is 82.8 ± 7.1%. Still for that read-out and setting: the figure for `CCCC(C)CN1CCCC(Nc2ccc3[nH]ncc3c2)C1` (stereo not drawn) [Example 281, N-(1H-5-indazolyl)-N-[1-(2-methylpentyl)-3-piperidyl]amine] is 100 ± 8.2%. With `Fc1cc(F)c(CN2CCCC(Nc3ccc4[nH]ncc4c3)C2)c(F)c1` (stereo not drawn) [Example 282, N-(1H-5-indazolyl)-N-[1-(2,4,6-trifluorobenzyl)-3-piperidyl]amine], the inhibition at 1 µM in test [1] (setting [4]) amounted to 29.9 ± 4.1%. As for `Fc1ccc(CN2CCCC(Nc3ccc4[nH]ncc4c3)C2)c(Cl)c1` (stereo not drawn) [Example 293, N-[1-(2-chloro-4-fluorobenzyl)-3-piperidyl]-N-(1H-5-indazolyl)amine], in test [1] (setting [3]), the inhibition at 3 µM stood at 93.5 ± 9.9%. Turning to `COC(=O)C(c1ccc(F)c(F)c1)N1CCCC(Nc2ccc3[nH]ncc3c2)C1` (stereo not drawn) [Example 294], the inhibition at 0.1 µM in test [1] (Homo sapiens, U-937, 1 h, test compound 0.1 μM, read-out: Migration inhibition (%) ± SEM) came out at 87.4 ± 6.4%. Moreover, in test [1] (setting [5]), the inhibition at 0.3 µM is 98.3 ± 1.4%. As to `CCC(CC)CN1CCC(Nc2cccc3cnccc23)CC1` [Example 320, N-[1-(2-ethylbutyl)-4-piperidyl]-N-(5-isoquinolyl)amine], in test [1] (setting [4]), the inhibition at 1 µM was found to be 82.9 ± 7%.
